The results in this text go back to US20130071439A1, “METHODS AND COMPOSITIONS FOR TREATING BIOFILMS” (PRESIDENT AND FELLOWS OF HARVARD COLLEGE, priority 2010, published 2013).

A word on the inhibition: it is the drop in the measured response relative to a control, in per cent.

Assay [1] concerns B. subtilis strain NCIB3610. The assay can be described thus: Pellicle (biofilm) formation in liquid biofilm-inducing medium. The format is cell-based, Bacillus subtilis. As to conditions: for minimum concentration (MIC) needed to prevent biofilm formation: complete inhibition of pellicle formation; for biofilm-inhibition assay for B. subtilis: concentration not given. The method, then:
(§1) For colony formation on solid medium, cells were first grown to exponential growth phase in LB broth and 3 μl of culture were spotted onto solid MSgg medium containing 1.5% Bacto agar. The plates were incubated at 23° C. For pellicle formation in liquid medium, cells were grown to exponential phase and 6 μl of culture were mixed with 6 ml of medium in a 12-well plate (VWR). Plates were incubated at 23° C. Images of colonies and pellicles were taken using a SPOT camera (Diagnostic Instruments, USA).
To investigate whether mature biofilms produce a factor that triggers biofilm disassembly, the effect of concentrated and partially purified extracts of conditioned medium on pellicle formation when added to fresh medium was assayed. To this end, conditioned medium from an eight-day-old culture was applied to a C18 Sep Pak column. Concentrated eluate from the column was then added to a freshly inoculated culture. […] Further purification of the factor was achieved by eluting the cartridge in step-wise fashion with increasing concentrations of methanol.
D-tyrosine, D-leucine, D-tryptophan, and D-methionine were screened for inhibiting biofilm formation by B. subtilis both in liquid and on solid medium (FIG. 2A, 5, 6).
Next, the minimum concentration (MIC for Minimal Inhibitory Concentration) needed to prevent biofilm formation was determined.

For assay [2], the system named is B. subtilis strain NCIB3610. The assay can be described thus: Colony biofilm formation on solid MSgg medium. The format is cell-based, Bacillus subtilis. As to conditions: 8.5 mM, 4 days. The method, then: as §1
The test system of the next assay is B. subtilis. The assay can be described thus: Effect on cell growth in MSgg medium with shaking. The format is cell-based, Bacillus subtilis. As to conditions: 8.5 mM.
In assay [3] the test system is yqxM operon (strain FC122). The assay can be described thus: Expression of PyqxM-lacZ (β-galactosidase activity). The format is cell-based, Bacillus subtilis. Conditions: 8.5 mM. The method, then:
(§2) Assays of β-galactosidase activity. Cells were cultured in MSgg medium at 37° C. in a water bath with shaking 1 ml of culture was collected at each time point. β-galactosidase activity was determined as described previously (Chai et al., Mol. Microbiol. 67:254 (2008)).

Another assay deals with eps operon (strain FC5). The assay can be described thus: Expression of PepsA-lacZ (β-galactosidase activity). As to conditions: 8.5 mM. The format is cell-based, Bacillus subtilis. As to the method:
as §2

Assay [4] relates to Pseudomonas aeruginosa PA14. The assay can be described thus: Biofilm formation on polystyrene, crystal violet staining. The class given is cell-based. Conditions: Pseudomonas aeruginosa, PA14, 48 h/30° C., Polystyrene, read-out: % Inhibition relative to control (0%, <50%, 50-90%, >90%). The method, then: Crystal violet staining was done as described previously (O'Toole et al., Mol. Microbiol. 30:295 (1998)) except that the cells were grown in […]. Wells were stained with 500 μl of 1.0% Crystal-violet dye, rinsed twice with 2 ml double-distilled water and thoroughly dried.
P. aeruginosa strain […] was grown in 12-well polystyrene plates for 48 hours at 30° C. in M63 medium containing glycerol (0.2%) and Casamino acids ([…]). Additionally added to the wells were no amino acids (untreated), D-tyrosine or the D-amino acid equimolar mixture. Cells bound to the polystyrene were visualized by washing away unbound cells and then staining with crystal violet. Wells were stained with […] of 1.0% Crystal-violet dye, rinsed twice with 2 ml double-distilled water and thoroughly dried.
For experiments reported in Table 1, the organism/strain was S.a. Harvard SCO1, the culture medium was TSB and the cell inoculation was at 2×10^9 cfu. For experiments reported in Table 2, the organism/strain was […], the culture medium was M63 and the cell inoculation was at 1.5×10^9 cfu. Biofilm was visualized using the crystal violet method.

The subject of a further assay is P.a. Harvard PA14. The assay can be described thus: Biofilm (colony architecture) formation on M63 defined solid medium. The format is cell-based, Pseudomonas aeruginosa. Conditions: 500 μM (L-tryptophan: concentration not given). The text has this: Similarly to Bacillus subtilis, Pseudomonas aeruginosa forms a complex architecture on defined medium. These complex structures require the proper formation and assembly of the extra-cellular matrix. […] For these experiments, the organism/strain was P.a. Harvard PA14, the culture medium was M63 and the cell inoculation was at 1.5×10^9 cfu.

In the case of `CC(C)C[C@@H](N)C(=O)O` [D-Leu, D-leucine], in assay [1] (8.5 mM added to freshly inoculated culture in biofilm-inducing medium, 3 days), the “effect on pellicle formation” value is given as “significant inhibition of biofilm growth”. In addition, in assay [1], the “minimum concentration (MIC) needed to prevent biofilm formation” value (from here on “minimum concentration (MIC) needed”) is on record as “around 1 mM” and the “biofilm-inhibition assay for B. subtilis” value is reported as “significant inhibition of biofilm growth”. In assay [2], the “effect on biofilm formation on solid medium” value is on record as “inhibited biofilm formation”. For the same molecule, the cell growth result in the assay on B. subtilis is recorded as “substantially the same as the untreated sample”. Also, in assay [3], the yqxM expression entry is “substantially the same as the untreated sample”. For the same molecule, the eps expression result in the assay with eps operon (strain FC5) is given as “substantially the same as the untreated sample”.
With `CSCC[C@@H](N)C(=O)O` [D-Met, D-methionine], the “effect on biofilm formation” value in assay [1] (2 mM in MSgg medium, 3 days) is on record as “active in inhibiting biofilm formation”. Moreover, in assay [1], the “minimum concentration (MIC) needed” value is given as “around 1 mM” and the “biofilm-inhibition assay for B. subtilis” value is recorded as “significant inhibition of biofilm growth”. For the same molecule, the inhibition at 10 µM in assay [4] (10 μM) came out at 0%. The inhibition at 100 µM in assay [4] (100 μM) is 0%. Besides, the inhibition at 500 µM in assay [4] (500 μM) was determined as 0%.
As to `N[C@H](Cc1ccccc1)C(=O)O` [D-Phe, D-phenylalanine], the “biofilm-inhibition assay for B. subtilis” value in assay [1] was “not effective”.
As for `N[C@H](Cc1c[nH]c2ccccc12)C(=O)O` [D-Trp, D-tryptophan], the “effect on biofilm formation” value in assay [1] (0.5 mM in MSgg medium, 3 days) is recorded as “active in inhibiting biofilm formation”. Besides, in assay [1], the “minimum concentration (MIC) needed” value is “around 1 mM” and the “biofilm-inhibition assay for B. subtilis” value is “significant inhibition of biofilm growth”. Also, in the assay with P.a. Harvard PA14, the “effect on biofilm formation on defined medium” value (“effect … on defined medium” for short) was “inhibited biofilm formation on defined medium”.
On to `C[C@@H](N)C(=O)O` [D-alanine], for which, in assay [1], the “biofilm-inhibition assay for B. subtilis” value is on record as “not effective”.
With `N[C@@H](Cc1ccc(O)cc1)C(=O)O` [L-Tyr, L-tyrosine, reference compound], the “effect … on defined medium” value in the assay on P.a. Harvard PA14 is on record as “did not”.
With `CSCC[C@H](N)C(=O)O` [L-methionine, reference compound], in assay [1] (5 mM in MSgg medium, 3 days), the “effect on biofilm formation” value was “Only the D-amino acids were active”.
With `N[C@@H](Cc1c[nH]c2ccccc12)C(=O)O` [L-tryptophan, reference compound], the “effect on biofilm formation” value in assay [1] (5 mM in MSgg medium, 3 days) is given as “Only the D-amino acids were active”. In addition, the “effect … on defined medium” value in the assay with P.a. Harvard PA14 is reported as “did not”.
